According to US20260166017A1, “SARM1 INHIBITORS FOR USE IN THERAPY AND COSMETICS” (priority 2022, published 2026):
“Also recorded” adds a separate entry of the source.

How the values were obtained:
[1] = test system: freshly plated P2 mouse Schwann cells; assay: Cell death in freshly plated P2 mouse Schwann cells (propidium iodide, DAPI, SOX10); format: cell-based; conditions: 100 μM vacor for 72 hours vs DMSO
Description: (§1) Freshly plated mouse Schwann cells were obtained from P2 sciatic and brachial nerves. Nerves were digested with trypsin and collagenase, centrifuged and plated on laminin/Poly-L-lysine coated glass coverslips in defined medium as previously described (Arthur-Farraj et al., 2011).
Sciatic and optic nerves were dissected from Wt and Sarm1 KO mice and directly embedded in O.C.T. compound, without fixing, and stored at −80° C. until ready for cryosectioning. Cryosections at 5 μm thick were collected onto SuperFrost plus slides. These slides were post-fixed in 4% paraformaldehyde (PFA) at room temperature for 10 mins followed by three washes of 5 mins each with 1×PBS. The slides were then immersed in 100% methanol at −20° C. for 10 mins, followed by three washes of 5 mins each with 1×PBS. The slides were then blocked in 5% horse serum (HS)/0.2% Triton x-100/PBS for 30 mins at room temperature. Primary antibodies were diluted in blocking solution and slides were incubated overnight at 4° C. The following day, the slides were washed once for 5 mins with 1×PBS, twice for 5 mins with 0.1% tween/PBS and finally once again for 5 mins with 1×PBS before adding secondary antibodies. The corresponding secondary antibodies were diluted at 1:500 along with DAPI at 1:2000 for 2 hrs at room temperature and kept in the dark. […]

Human foetal DRG axons = assay: Axon degeneration and regeneration assay in human foetal DRGs in microfluidic chambers; format: cell-based; conditions: 24 h after addition of 25 μM Vacor in the axonal compartment
Description: Human foetal DRG ganglia were dissected, dissociated and plated in microfluidic chambers (150 μm barrier, XONA Microfluidics) in 35 mm tissue culture dishes pre-coated with poly-L-lysine (100 μg/ml for 1 hr; Merck) and laminin (20 μg/ml for 1 hr; Merck) in Dulbecco's Modified Eagle's Medium (DMEM, Gibco) with 1% penicillin/streptomycin, 33 ng/ml 2.5 S NGF (all Invitrogen) and 2% B27 (Gibco). 4 μM aphidicolin (Merck) was used to reduce proliferation and viability of small numbers of non-neuronal cells. On DIV7, a difference of 100 μl of media between chambers was introduced and drugs were added to the compartment with the lower hydrostatic pressure. Phase contrast microscopy images were acquired on a DMi8 upright fluorescence microscope (Leica microsystems) coupled to a monochrome digital camera (Hamamatsu C4742-95). The objective used was HCXPL 20 X/0.40 CORR.

Schwann cells = assay: Intracellular NAD+ in Schwann cells (NAD-glo assay); format: cell-based, mouse; conditions: 100 μM vacor, 72 hours, compared to DMSO control
Description: as §1
[…] Protein was extracted using Pierce™ IP Lysis Buffer supplemented with cOmplete™ Mini EDTA-free Protease Inhibitor Cocktail, and a BCA assay carried out to determine protein concentration. All samples were diluted to 0.5 μg/μL. The NAD-glo assay was performed according to manufacturer's instruction of the NAD^+/NADH-Glo™ assay by Promega (G9071). In short, 25 μL of sample were incubated with 12.5 μL 0.4M HCl at 60° C. for 15 min, before 12.5 μL 0.5M Tris base were added. 10 μL NAD^+ standards or sample were then mixed with 10 μL NAD-glo master mix (1 ml luciferin detection reagent, 5 μl reductase, 5 μl reductase substrate, 5 μl NAD^+ cycling enzyme, 25 μl NAD^+ cycling substrate) and incubated at RT for 40 min. Luminescence was read using a GloMax® Explorer microplate reader and NAD^+ concentrations determined relative to a NAD^+ standard curve.

neuronal cultures = conditions: Loreto et al., 2021, Wu et al.; cited from earlier work
[2] = test system: human dermal skin fibroblasts; assay: Cell death assay in human dermal skin fibroblasts (propidium iodide); format: cell-based; conditions: high dose vacor (100 μM), 72 h vs DMSO
Description: Human primary myoblasts and human dermal skin fibroblasts were cultured following previously described protocols (Kisiel and Klar 2019; Rozwadowska et al. 2022). Drug treatment was started when cells reached the desired confluency. To visualise cell death, 1 μg/ml propidium iodide (PI) (Thermo Fisher Scientific) was added to the media at the same time of drug addition (Loreto et al. 2021). Phase contrast and fluorescence microscopy images were acquired on a DMi8 upright fluorescence microscope (Leica microsystems) coupled to a monochrome digital camera (Hamamatsu C4742-95). The objective used was HCXPL 20 X/0.40 CORR.

SARM1 = target: T1, SARM1 (Homo sapiens, UniProt Q6SZW1); conditions: Loreto et al., 2021; Angeletti et al., 2022; Wu et al.; cited from earlier work
T1 sequence (Q6SZW1 28-724): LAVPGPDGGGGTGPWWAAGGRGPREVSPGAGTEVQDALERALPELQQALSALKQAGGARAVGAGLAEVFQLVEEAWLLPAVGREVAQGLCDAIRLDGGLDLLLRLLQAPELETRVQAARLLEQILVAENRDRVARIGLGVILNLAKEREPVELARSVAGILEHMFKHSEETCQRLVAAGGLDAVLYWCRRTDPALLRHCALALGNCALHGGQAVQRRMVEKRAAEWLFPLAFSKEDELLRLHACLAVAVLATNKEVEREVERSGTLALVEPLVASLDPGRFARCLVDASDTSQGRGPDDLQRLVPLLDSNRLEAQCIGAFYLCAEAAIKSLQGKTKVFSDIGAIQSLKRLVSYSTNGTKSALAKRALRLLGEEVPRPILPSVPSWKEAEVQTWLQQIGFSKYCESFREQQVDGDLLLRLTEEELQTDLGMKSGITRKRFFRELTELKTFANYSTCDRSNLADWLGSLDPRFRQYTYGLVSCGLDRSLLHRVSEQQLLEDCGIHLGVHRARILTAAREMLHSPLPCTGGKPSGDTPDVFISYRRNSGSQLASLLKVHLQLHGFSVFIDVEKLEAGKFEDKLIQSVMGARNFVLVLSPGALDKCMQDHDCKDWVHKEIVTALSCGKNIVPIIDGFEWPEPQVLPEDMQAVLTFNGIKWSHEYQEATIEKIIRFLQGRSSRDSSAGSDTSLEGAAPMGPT

Structure (SMILES): O=C(NCc1cccnc1)Nc1ccc([N+](=O)[O-])cc1 [vacor, Vacor]
- cell death judged by propidium iodide (P.I) and DAPI nuclear staining and SOX10 immunocytochemistry [1]: completely insensitive; also recorded: no cell death
- DRG axon degeneration (Human foetal DRG axons): degenerate
- Intracellular NAD+ levels (Schwann cells): no reduction; also recorded: do not change
- effect of high dose on neuronal cultures (neuronal cultures): axonal degeneration and cell death within hours
- cell death by propidium iodide (P.I.) staining [2]: completely insensitive; also recorded: no cell death occurs
- SARM1 activity on interaction with active site (TIR domain) for base exchange reaction (SARM1): modest increase in SARM1 activity
